Assay results reported in patent US9562031B1, “Phenethyldihydrobenzodioxolones and methods of use” (Sequoia Sciences, Inc., priority 2015, dated 2017).
Read-outs that look alike come from different tables or passages of the source.

Tests used:
[1] = test system: NCI-H460 (large cell lung carcinoma) cells; assay: antiproliferation assay (72 h, CELLTITER 96), NCI-H460; assay type: cell-based, human; conditions: read-out: NCI-H460 IC50
Procedure, shortened: (§1)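 Human M14 melanoma and NCI-H460 lung carcinoma cells in RPMI-1640/10% FBS, seeded at 5×10^2–5×10^4 cells/well and adhered overnight, then exposed to seven compound concentrations for 72 h at 37 °C. Viable cells read by CellTiter 96 AQueous (MTS); IC50 = concentration giving 50% of maximal growth inhibition.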

[2] = test system: M14 (amelanotic melanoma) cells; assay: antiproliferation assay (72 h, CELLTITER 96), M14; assay type: cell-based, human
Procedure, shortened: as §1

[3] = Homo sapiens, NCI-H460, Table 8
[4] = Homo sapiens, NCI-H460, Table 7
[5] = Homo sapiens, NCI-H460, Table 3
[6] = Homo sapiens, NCI-H460, Table 4
[7] = Homo sapiens, NCI-H460, Table 5

In the case of `C=CC[C@H]1C[C@]2([C@H](C)Cc3ccc(OC)c4occc34)OCOC2=CC1=O` [Compound 84, (6S,7aR)-6-allyl-7a-((R)-1-(7-methoxybenzofuran-4-yl)propan-2-yl)-7,7a-dihydrobenzo[d][1,3]dioxol-5(6H)-one], the IC50 [1, 3] is reported as 2.6 µM and the IC50 ([2]; Homo sapiens, Table 8) is reported as over 20 µM.
`C=CC[C@H]1C[C@]2([C@@H](C)Cc3ccc(OC)c4occc34)OCOC2=CC1=O` [Compound 85, (6S,7aR)-6-allyl-7a-((S)-1-(7-methoxybenzofuran-4-yl)propan-2-yl)-7,7a-dihydrobenzo[d][1,3]dioxol-5(6H)-one] gave an IC50 [1, 3] of 0.73 µM and an IC50 ([2]; Homo sapiens, Table 8) of 0.63 µM.
Work on `C=CC[C@H]1C[C@]2([C@@H](C)Cc3ccc(OC)nc3)OCOC2=CC1=O` [Compound 86, (6S,7aR)-6-allyl-7a-((S)-1-(6-methoxypyridin-3-yl)propan-2-yl)-7,7a-dihydrobenzo[d][1,3]dioxol-5(6H)-one] yielded an IC50 [1, 3] of 0.33 µM and an IC50 ([2]; Homo sapiens, Table 8) of 0.18 µM.
`C=CC[C@H]1C[C@]2([C@@H](CC)Cc3ccc(OC)c(OC)c3)OCOC2=CC1=O` [Compound 87, (6S,7aR)-6-allyl-7a-(1-(3,4-dimethoxyphenyl)butan-2-yl)-7,7a-dihydrobenzo[d][1,3]dioxol-5(6H)-one] showed an IC50 [1, 3] of 11 µM and an IC50 ([2]; Homo sapiens, Table 8) of 2.6 µM.
For `C=CC[C@H]1C[C@]2(C(C)Cc3ccc(OC)c(OC)c3)OCOC2=C(C)C1=O` (stereo partly drawn) [Compound 88, (6S,7aR)-6-allyl-7a-(1-(3,4-dimethoxyphenyl)propan-2-yl)-4-methyl-7,7a-dihydrobenzo[d][1,3]dioxol-5(6H)-one], the IC50 [1, 3] was 4.6 µM and the IC50 ([2]; Homo sapiens, Table 8) was 4.2 µM.
`C=CC[C@H]1C[C@]2([C@H](C)Cc3cc(F)c(OC)cc3F)O[C@H](C)OC2=CC1=O` [Compound 89, (2R,6S,7aR)-6-allyl-7a-((R)-1-(2,5-difluoro-4-methoxyphenyl)propan-2-yl)-2-methyl-7,7a-dihydrobenzo[d][1,3]dioxol-5(6H)-one] was tested, and the IC50 [1, 3] was 6.9 µM and the IC50 ([2]; Homo sapiens, Table 8) was over 20 µM.
In the case of `COc1ccc(C[C@H](C)[C@]23C[C@H](CC=C(C)C)C(=O)C=C2OCO3)cc1OC` [Compound 90], the IC50 [1, 4] is reported as 8 µM and the IC50 ([2]; Homo sapiens, Table 7) is reported as 7 µM.
In the case of `C=CC[C@H]1C[C@]2([C@@H](C)Cc3cc(-c4ccccc4)c(OC)cc3F)OCOC2=CC1=O` [Compound 91, (6S,7aR)-6-allyl-7a-((S)-1-(4-fluoro-6-methoxy-[1,1′-biphenyl]-3-yl)propan-2-yl)-7,7a-dihydrobenzo[d][1,3]dioxol-5(6H)-one], the IC50 [1, 5] is reported as over 20 µM and the IC50 ([2]; Homo sapiens, Table 3) is reported as over 20 µM.
Work on `C=CC[C@H]1C[C@]2(C(C)Cc3cc(C(=O)O)c(OC)cc3F)OCOC2=CC1=O` (stereo partly drawn) [Compound 92, 5-(2-((3aR,5S)-5-allyl-6-oxo-3a,4,5,6-tetrahydrobenzo[d][1,3]dioxol-3a-yl)propyl)-4-fluoro-2-methoxybenzoic acid] yielded an IC50 [1, 5] of over 20 µM and an IC50 ([2]; Homo sapiens, Table 3) of over 20 µM.
For `C=CC[C@H]1C[C@]2([C@H](C)Cc3cc(C(=O)N(C)C)c(OC)cc3F)OCOC2=CC1=O` [Compound 93, 5-((R)-2-((3aR,5S)-5-allyl-6-oxo-3a,4,5,6-tetrahydrobenzo[d][1,3]dioxol-3a-yl)propyl)-4-fluoro-2-methoxy-N,N-dimethylbenzamide], the IC50 [1, 5] was over 20 µM and the IC50 ([2]; Homo sapiens, Table 3) was over 20 µM.
Work on `C=CC[C@H]1C[C@]2([C@@H](C)Cc3cc(C(=O)N(C)C)c(OC)cc3F)OCOC2=CC1=O` [Compound 94, 5-((S)-2-((3aR,5S)-5-allyl-6-oxo-3a,4,5,6-tetrahydrobenzo[d][1,3]dioxol-3a-yl)propyl)-4-fluoro-2-methoxy-N,N-dimethylbenzamide] yielded an IC50 [1, 5] of over 20 µM and an IC50 ([2]; Homo sapiens, Table 3) of over 20 µM.
`C=CC[C@H]1C[C@]2([C@@H](C)Cc3cc(-c4nnn[nH]4)c(OC)cc3F)OCOC2=CC1=O` [Compound 95, (6S,7aR)-6-allyl-7a-((S)-1-(2-fluoro-4-methoxy-5-(1H-tetrazol-5-yl)phenyl)propan-2-yl)-7,7a-dihydrobenzo[d][1,3]dioxol-5(6H)-one] showed an IC50 [1, 5] of over 20 µM and an IC50 ([2]; Homo sapiens, Table 3) of over 20 µM.
`C=CCC1C[C@]2([C@@H](C)Cc3ccc(OC)c(C(C)=O)c3)OCOC2=CC1=O` (stereo partly drawn) [Compound 96, (7aR)-7a-((S)-1-(3-acetyl-4-methoxyphenyl)propan-2-yl)-6-allyl-7,7a-dihydrobenzo[d][1,3]dioxol-5(6H)-one] showed an IC50 [1, 6] of over 20 µM and an IC50 ([2]; Homo sapiens, Table 4) of over 20 µM.
In the case of `C=CC[C@H]1C[C@]2([C@H](C)Cc3ccc(OC)c(N(C)C)c3)OCOC2=CC1=O` [Compound 97, (6S,7aR)-6-allyl-7a-((R)-1-(3-(dimethylamino)-4-methoxyphenyl)propan-2-yl)-7,7a-dihydrobenzo[d][1,3]dioxol-5(6H)-one], the IC50 [1, 6] is reported as over 20 µM and the IC50 ([2]; Homo sapiens, Table 4) is reported as over 20 µM.
With `C=CC[C@H]1C[C@]2([C@@H](C)Cc3ccc(O)cc3)OCOC2=CC1=O` [Compound 99, (6S,7aR)-6-allyl-7a-((S)-1-(4-hydroxyphenyl)propan-2-yl)-7,7a-dihydrobenzo[d][1,3]dioxol-5(6H)-one] the IC50 [1, 7] was over 20 µM and the IC50 ([2]; Homo sapiens, Table 5) was over 20 µM.
With `C=CC[C@H]1C[C@]2([C@@H](C)Cc3ccc(OC(C)=O)cc3)OCOC2=CC1=O` [Compound 100, 4-((S)-2-((3aR,5S)-5-allyl-6-oxo-3a,4,5,6-tetrahydrobenzo[d]dioxol-3a-yl)propyl)phenyl acetate] the IC50 [1, 7] was over 20 µM and the IC50 ([2]; Homo sapiens, Table 5) was over 20 µM.
`C=CC[C@H]1C[C@]2([C@H](C)Cc3ccc(OCCOC)c(F)c3)OCOC2=CC1=O` [Compound 101, (6S,7aR)-6-allyl-7a-((R)-1-(3-fluoro-4-(2-methoxyethoxy)phenyl)propan-2-yl)-7,7a-dihydrobenzo[d][1,3]dioxol-5(6H)-one] gave an IC50 [1, 7] of over 20 µM and an IC50 ([2]; Homo sapiens, Table 5) of over 20 µM.
Work on `C=CC[C@H]1C[C@]2([C@@H](C)Cc3ccc(NC(C)=O)c(F)c3)OCOC2=CC1=O` [Compound 102, N-(4-((S)-2-((3aR,55)-5-allyl-6-oxo-3a,4,5,6-tetrahydrobenzo[d][1,3]dioxol-3a-yl)propyl)-2-fluorophenyl)acetamide] yielded an IC50 ([1]; Table 5) of over 20 µM and an IC50 ([2]; Table 5) of over 20 µM.
Molecule `C=CC[C@H]1C[C@]2([C@@H](C)Cc3ccc(N(C)C(C)=O)cc3)OCOC2=CC1=O` [Compound 103, N-(4-((S)-2-((3aR,5S)-5-allyl-6-oxo-3a,4,5,6-tetrahydrobenzo[d][1,3]dioxol-3a-yl)propyl)phenyl)-N-methylacetamide] has an IC50 [1, 7] of over 20 µM and an IC50 ([2]; Homo sapiens, Table 5) of over 20 µM.
Work on `COc1cc(F)c(C[C@H](C)[C@]23CCC(=O)C=C2OCO3)cc1O` [Compound 104, (R)-7a-((S)-1-(2-fluoro-5-hydroxy-4-methoxyphenyl)propan-2-yl)-7,7a-dihydrobenzo[d][1,3]dioxol-5(6H)-one] yielded an IC50 [1, 4] of over 20 µM and an IC50 ([2]; Homo sapiens, Table 7) of over 20 µM.
With `COc1ccc(CC(C)[C@]23CC(CC(C)=O)C(=O)C=C2OCO3)cc1OC` (stereo partly drawn) [Compound 106] the IC50 [1, 4] was over 20 µM and the IC50 ([2]; Homo sapiens, Table 7) was over 20 µM.
For `COc1ccc(CC(C)[C@]23C[C@H](CCCF)C(=O)C=C2OCO3)cc1OC` (stereo partly drawn) [Compound 107, (6S,7aR)-7a-(1-(3,4-dimethoxyphenyl)propan-2-yl)-6-(3-fluoropropyl)-7,7a-dihydrobenzo[d][1,3]dioxol-5(6H)-one], the IC50 [1, 4] was over 20 µM and the IC50 ([2]; Homo sapiens, Table 7) was over 20 µM.
In the case of `COc1cc(F)c(C[C@H](C)[C@]23C[C@H](CC(C)O)C(=O)C=C2OCO3)cc1O` (stereo partly drawn) [Compound 109, (6S,7aR)-7a-((S)-1-(2-fluoro-5-hydroxy-4-methoxyphenyl)propan-2-yl)-6-(2-hydroxypropyl)-7,7a-dihydrobenzo[d][1,3]dioxol-5(6H)-one], the IC50 [1, 4] is reported as 1.5 µM and the IC50 ([2]; Homo sapiens, Table 7) is reported as 0.65 µM.
In the case of `C=C[C@H](C)[C@H]1C[C@]2([C@@H](C)Cc3ccc(OC)cc3F)OCOC2=CC1=O` [Compound 110, (6R,7aR)-6-((S)-but-3-en-2-yl)-7a-((S)-1-(2-fluoro-4-methoxyphenyl)propan-2-yl)-7,7a-dihydrobenzo[d][1,3]dioxol-5(6H)-one], the IC50 [1, 4] is reported as 0.13 µM and the IC50 ([2]; Homo sapiens, Table 7) is reported as 0.29 µM.
`COc1cc(F)c(C[C@H](C)[C@]23C[C@H](CC(C)=O)C(=O)C=C2OCO3)cc1O` [Compound 111, (6R,7aR)-7a-((S)-1-(2-fluoro-5-hydroxy-4-methoxyphenyl)propan-2-yl)-6-(2-oxopropyl)-7,7a-dihydrobenzo[d][1,3]dioxol-5(6H)-one] was tested, and the IC50 [1, 4] was 15 µM and the IC50 ([2]; Homo sapiens, Table 7) was 7 µM.
`C=C[C@@H](C)[C@H]1C[C@]2([C@@H](C)Cc3ccc(OC)cc3F)OCOC2=CC1=O` [Compound 112, (6R,7aR)-6-((R)-but-3-en-2-yl)-7a-((S)-1-(2-fluoro-4-methoxyphenyl)propan-2-yl)-7,7a-dihydrobenzo[d][1,3]dioxol-5(6H)-one] gave an IC50 [1, 4] of 0.068 µM and an IC50 ([2]; Homo sapiens, Table 7) of 0.044 µM.
For `COc1cc(F)c(C[C@H](C)[C@]23C[C@H](Cc4ccco4)C(=O)C=C2OCO3)cc1O` [Compound 113, (6S,7aR)-7a-((S)-1-(2-fluoro-5-hydroxy-4-methoxyphenyl)propan-2-yl)-6-(furan-2-ylmethyl)-7,7a-dihydrobenzo[d][1,3]dioxol-5(6H)-one], the IC50 [1, 4] was 2.5 µM and the IC50 ([2]; Homo sapiens, Table 7) was 1.6 µM.
`COc1cc(F)c(C[C@H](C)[C@]23C[C@H](Cc4ccncc4)C(=O)C=C2OCO3)cc1O` [Compound 114, (6S,7aR)-7a-((S)-1-(2-fluoro-5-hydroxy-4-methoxyphenyl)propan-2-yl)-6-(pyridin-4-ylmethyl)-7,7a-dihydrobenzo[d][1,3]dioxol-5(6H)-one] showed an IC50 [1, 4] of 2 µM and an IC50 ([2]; Homo sapiens, Table 7) of 3.5 µM.
For `CCS[C@H]1C[C@]2([C@@H](C)Cc3ccc(OC)cc3F)OCOC2=CC1=O` [Compound 115, (6S,7aR)-6-(ethylthio)-7a-((S)-1-(2-fluoro-4-methoxyphenyl)propan-2-yl)-7,7a-dihydrobenzo[d][1,3]dioxol-5(6H)-one], the IC50 [1, 4] was over 20 µM and the IC50 ([2]; Homo sapiens, Table 7) was 11.3 µM.
`C=CC[C@H]1C[C@]2([C@@H](C)Cc3cc(F)c(SC)cc3F)OCOC2=CC1=O` [Compound 116, (6S,7aR)-6-allyl-7a-((S)-1-(2,5-difluoro-4-(methylthio)phenyl)propan-2-yl)-7,7a-dihydrobenzo[d][1,3]dioxol-5(6H)-one] was tested, and the IC50 [1, 7] was 0.19 µM and the IC50 ([2]; Homo sapiens, Table 5) was 0.12 µM.
